Data: US8680233B2, “Heteropeptides useful for reducing nonspecific adsorption” (Valorisation-Recherche, Limited Partnership, priority 2009, dated 2014)
Numbered stars: 1 amine (or outer) side, 2 acyl side, 3 side chain; on linkers, the order of the positions; unused ones are H or OH. Square brackets hold non-standard residues; d marks the D form. Peptide text beside a SMILES is read from it. azaTyr = O=C(N(Cc1ccc(O)cc1)N[*:1])[*:2]; azaPhe = O=C(N(Cc1ccccc1)N[*:1])[*:2]; azaLeu = CC(C)CN(N[*:1])C(=O)[*:2]; azaGly = NNC(=O)O; Mpa = O=C(O)CCS

Columns and labels:
[1] = Capillary electrophoresis, global charge of the peptide; format: physicochemical
Description: Capillary electrophoresis was performed to determine if this difference of configuration is due to the global charge of the peptide.

[2] = molecular target: recombinant soluble His-tagged CD36 (Homo sapiens, UniProt P16671); assay: SPR screening of peptide ligands on a CD36 functionalized sensor; format: binding; conditions: for Kd: CD36 functionalized sensor, linear Langmuir plot
recombinant soluble His-tagged CD36, sequence (P16671 30-439 limits assumed): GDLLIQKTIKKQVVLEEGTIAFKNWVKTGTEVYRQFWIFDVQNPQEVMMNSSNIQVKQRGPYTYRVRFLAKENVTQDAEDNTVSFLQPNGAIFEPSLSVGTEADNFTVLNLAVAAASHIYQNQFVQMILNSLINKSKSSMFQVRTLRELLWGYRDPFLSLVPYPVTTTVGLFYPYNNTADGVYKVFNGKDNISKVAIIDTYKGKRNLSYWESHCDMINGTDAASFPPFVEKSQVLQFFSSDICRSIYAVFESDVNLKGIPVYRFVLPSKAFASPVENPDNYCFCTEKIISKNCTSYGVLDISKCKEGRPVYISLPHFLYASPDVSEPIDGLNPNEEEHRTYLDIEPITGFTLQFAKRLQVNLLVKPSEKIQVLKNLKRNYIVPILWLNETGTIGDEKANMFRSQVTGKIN
Description: The SPR sensors for screening small peptidic ligand binding to a recombinant soluble His-tagged CD36 functionalized surfaces were prepared as described above. Five ligands were investigated: EP80317, CP-2B(i), CP-3(iv), CP-2A(v) and DBG-178(27) with concentrations ranging from 30 μM to 100 nM except for EP80317. The latter was used for optimizing the system with solutions ranging from 1 mM to 100 nM. EP80317 (HAIC-2MeDTrp-DLys-Trp-D-Phe-Lys-NH2) is a positive control of known activity, CP-2B(i) (His-DTrp-AzaLeu-Trp-DPhe-Ala-NH2) is a negative control, and CP-3(iv) (Ala-DTrp-Ala-AzaPhe-DPhe-Lys-NH2), CP-2A(v) (His-DTrp-AzaGly-Trp-DPhe-Lys-NH2) and DBG-178(27) (His-DTrp-Ala-azaTyr-DPhe-Lys-NH2) are novel CD36 ligands (see PCT publication No. WO 08/154,738). Another negative control was accomplished by exposing the His-tagged hDHFR functionalized surface to the same concentration of CD36 peptidic ligand. Two different approaches were used to remove the His-tagged CD36-Cu complex from the SPR sensors: concentrated histidine solution or saturated EDTA solution.
This is the case of the CD36-ligand system investigated herein, where the ligands are small peptides of about 800 to 1000 g/mol. Indeed, according to the aforementioned principle, the binding of the small peptides to the CD36 receptor should be close to the limit of detection, thus providing unreliable affinity measurements. […] This could be a consequence of a large conformational change of the CD36 receptor upon binding of specific ligands, thus providing the amplification sufficient for SPR signal detection.
(§1) The SPR setup was used for investigating the structure-activity relationships of various CD36 peptidic ligands. […] The measured KD's were compared to the EC50 values obtained in the activated src-kinase assay following CD36 receptor activation by the tested peptides. […] For the src-kinase cellular assay, the response sensitivity (EC50) for the tested peptides (in decreasing order) was as follows: EP80317>CP-2A(v)>CP-3(iv)>DBG-178(27)>CP-2B(i). With SPR, the binding affinity to CD36, in decreasing order, was: DBG-178(27)>CP-2A(v)>EP80317>CP-3(iv)>CP-2B(i). […] For CD36-peptidic ligands, a correlation appears between the affinity binding of the small peptides for CD36 as determined by SPR and their efficiency to produce a cellular response in the src kinase assay. Thus, SPR appears as a selective and sensitive method to screen for CD36 ligands.

[3] = molecular target: CD36 receptor (Homo sapiens, UniProt P16671); assay: SRC-kinase cellular assay following CD36 receptor activation; format: cell-based; conditions: activation of src-kinases after CD36 receptor activation
CD36 receptor, sequence (P16671 whole entry): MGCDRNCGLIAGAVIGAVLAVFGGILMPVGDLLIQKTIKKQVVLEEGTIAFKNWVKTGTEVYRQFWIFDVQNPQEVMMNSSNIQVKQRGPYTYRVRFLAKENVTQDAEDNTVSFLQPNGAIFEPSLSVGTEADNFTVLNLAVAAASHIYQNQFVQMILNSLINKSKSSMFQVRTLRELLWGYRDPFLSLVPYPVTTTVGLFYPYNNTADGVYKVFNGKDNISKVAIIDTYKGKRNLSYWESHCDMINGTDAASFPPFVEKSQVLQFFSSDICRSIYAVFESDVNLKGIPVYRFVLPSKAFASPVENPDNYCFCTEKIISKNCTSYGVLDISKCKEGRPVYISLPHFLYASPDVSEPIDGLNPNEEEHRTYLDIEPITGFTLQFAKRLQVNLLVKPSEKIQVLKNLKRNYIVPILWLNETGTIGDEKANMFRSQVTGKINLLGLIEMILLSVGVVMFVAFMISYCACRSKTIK
From the text: as §1

[4] = Secondary structure of peptide SAM by FT-IR (mid-IR amide band); format: physicochemical; conditions: peptide SAM on gold-coated SPR sensor
Description: Microscope slides (BK7, 22×22 mm) were coated with a 3 nm titanium (Ti) adhesion layer and a 50 nm gold (Au) layer (purity 99.99%, ESPI metals) using a Cressington™ 308R sputter coater. These Au-coated SPR slides were immersed for at least 16 h in a 5 mM peptide solution in absolute ethanol to form a well-ordered monolayer (Masson, J. F. et al. Talanta 2004, 64: 716). Four replicates were prepared for each 3-MPA-peptide. The SAM formed on the SPR sensors was extensively rinsed with DMF and ethanol and dried. The mid-IR spectrum of the peptide monolayers immobilized on the SPR sensors was measured in attenuated total reflectance (ATR). Mid-IR spectra were recorded using a BRUKER TENSOR® 27 equipped with a Ge-ATR module.
The 3D structure of the peptides as SAMs is observed with the amide band visible in FT-IR. Peptides adopting an α-helix configuration are showing a strong amide band at 1645 cm^−1, while peptides auto-assembling in the β-sheet configuration leads to a shifted amide at 1675 cm^−1. Every peptide structure investigated in Table 1 adopted an α-helix configuration except for 3-MPA-HHHDD-OH, as shown in FIG. 3.
Peptides adopt secondary conformation, which plays a significant role in their biological activity. For peptides in solution, the secondary conformation is measured with CD, while peptides immobilized on a surface can be analyzed with mid-IR spectroscopy of the amide bands (Duevel, R. V., Corn, R. M., 1992. Analytical Chemistry 64(4), 337-342; Sakurai, T. et al., 2006. Journal of Peptide Science 12(6), 396-402). As listed in Table II, the secondary structure of most peptides adopted an α-helical conformation, with the exception of 3-MPA-DSDSD-OH, which adopted an extended conformation. As noted above, most peptides in the form of 3-MPA-peptide-OH adopt an α-helical conformation. Generally, mid-IR and CD agreed in the determination of the structures on surfaces and in solution, with the exception of one peptide. […] No relationship between structure and nonspecific adsorption could be established.

[5] = Surface concentration of the peptide monolayer on Au by SPR; format: physicochemical; conditions: peptide SAM on Au SPR sensor; average of four replicates
Description: The surface coverage for each monolayer was measured according to the change in response of the SPR sensor in PBS for the bare Au surface relative to the peptide-coated Au surface. To measure the formation of the monolayers, each SPR sensor was mounted on a custom-made SPR instrument in the Kretschmann configuration based on a dove prism with wavelength interrogation as previously described (Bolduc et al., 2009, supra). An Ocean Optics™ USB4000 fibre optic spectrometer ranging from 550 to 850 nm was used to acquire the spectral information processed with Matlab to obtain the SPR sensorgram. A 25 μL Teflon fluidic cell positioned on top of the SPR sensors was used to inject the solutions required to functionalize with the recognition element and detect the analytes of interest. The SPR response was acquired at a frequency of 1 Hz. The s-polarized reference was acquired in PBS buffer before monitoring a 5 minute baseline in p-polarization. PBS was replaced with crude bovine serum (76 mg/mL protein) for 20 minutes and rinsed with PBS for 5 minutes to quantify the amount of non-specifically adsorbed proteins.
The formation of monolayers on Au was measured to ensure that the peptide monolayers are indeed binding to the SPR sensor. The surface concentration of the monolayer provides a measurement of the number of molecules per square cm (i.e. the density of the monolayer at the surface). The surface concentration (Γ) of peptide-like self-assembled monolayers (SAMs) was characterized with the measurement of the SPR response before the formation of the SAMs and after their formation on the Au surface of the SPR sensor. The difference of SPR wavelength (λSPR) between these two measurements increases with the increasing surface concentration of the SAMs following the equation proposed by Jung et al. (Jung, L. S. et al. Langmuir 1998, 14: 5636): Γ=ρ(−0.5/d)ln(1−(ΔλSPRm^−1(ηSAM−ηPBS)^−1)) (eq. 1)

[6] = Advancing contact angle in PBS on peptide SAMs; format: physicochemical; conditions: average of four replicates

3-MPA-HHDDD-OH ([Mpa]HHDDD-OH; SMILES O=C(O)C[C@H](NC(=O)[C@H](CC(=O)O)NC(=O)[C@H](CC(=O)O)NC(=O)[C@H](Cc1c[nH]cn1)NC(=O)[C@H](Cc1c[nH]cn1)NC(=O)CCS)C(=O)O)
Global charge of the peptide [1]: about −1

NCCCC[C@H](NC(=O)[C@@H](Cc1ccccc1)NC(=O)[C@H](Cc1c[nH]c2ccccc12)NC(=O)NNC(=O)[C@@H](Cc1c[nH]c2ccccc12)NC(=O)[C@@H](N)Cc1cnc[nH]1)C(N)=O [CP-2A(v), His-DTrp-AzaGly-Trp-DPhe-Lys-NH2] (H-H[dW][azaGly]W[dF]K-NH2)
Kd [2]: 44 nM | EC50 [3]: 26 nM

CC(C)CN(NC(=O)[C@@H](Cc1c[nH]c2ccccc12)NC(=O)[C@@H](N)Cc1cnc[nH]1)C(=O)N[C@@H](Cc1c[nH]c2ccccc12)C(=O)N[C@H](Cc1ccccc1)C(=O)N[C@@H](C)C(N)=O [CP-2B(i), His-DTrp-AzaLeu-Trp-DPhe-Ala-NH2, reference compound] (H-H[dW][azaLeu]W[dF]A-NH2)
Kd [2]: 1400 nM | EC50 [3]: > 10000 nM

3-MPA-HHHDD-OH ([Mpa]HHHDD-OH; SMILES O=C(O)C[C@H](NC(=O)[C@H](CC(=O)O)NC(=O)[C@H](Cc1c[nH]cn1)NC(=O)[C@H](Cc1c[nH]cn1)NC(=O)[C@H](Cc1c[nH]cn1)NC(=O)CCS)C(=O)O)
Secondary Structure FT-IR (SAM) [4]: β-sheet | Surface density ΔΓSAM [5]: 0.230 10^15 molecule/cm^2 | Contact angle in PBS θC_PBS [6]: 37.8 ° | Global charge of the peptide [1]: about −1

C[C@H](N)C(=O)N[C@H](Cc1c[nH]c2ccccc12)C(=O)N[C@@H](C)C(=O)NN(Cc1ccccc1)C(=O)N[C@H](Cc1ccccc1)C(=O)N[C@@H](CCCCN)C(N)=O [CP-3(iv), Ala-DTrp-Ala-AzaPhe-DPhe-Lys-NH2] (H-A[dW]A[azaPhe][dF]K-NH2)
Kd [2]: 380 nM | EC50 [3]: 44 nM

C[C@H](NC(=O)[C@@H](Cc1c[nH]c2ccccc12)NC(=O)[C@@H](N)Cc1cnc[nH]1)C(=O)NN(Cc1ccc(O)cc1)C(=O)N[C@H](Cc1ccccc1)C(=O)N[C@@H](CCCCN)C(N)=O [DBG-178(27), His-DTrp-Ala-azaTyr-DPhe-Lys-NH2] (H-H[dW]A[azaTyr][dF]K-NH2)
Kd [2]: 22 nM | EC50 [3]: 63 nM

CC(C)CN(NC(=O)[C@@H](Cc1c[nH]c2ccccc12)NC(=O)[C@@H](N)Cc1c[nH]cn1)C(=O)N[C@@H](Cc1c[nH]c2ccccc12)C(=O)N[C@H](Cc1ccccc1)C(=O)N[C@@H](C)C(N)=O [CP-2B(i), His-DTrp-AzaLeu-Trp-DPhe-Ala-NH2, reference compound] (H-H[dW][azaLeu]W[dF]A-NH2)
Binding affinity to CD36 (in words) ([2]; negative control): low binding affinity

3-MPA-HHHHD-OH ([Mpa]HHHHD-OH; SMILES O=C(O)C[C@H](NC(=O)[C@H](Cc1c[nH]cn1)NC(=O)[C@H](Cc1c[nH]cn1)NC(=O)[C@H](Cc1c[nH]cn1)NC(=O)[C@H](Cc1c[nH]cn1)NC(=O)CCS)C(=O)O)
Global charge of the peptide [1]: about −1
